Experimental data as given in paper PMC7038139, “Novel Peptide CM 7 Targeted c-Met with Antitumor Activity” (Molecules, 2020).
Entries after “also recorded” stand apart in the source; their conditions may differ.

Experiments:
[1] = system: c-Met and its downstream signaling molecules in MKN-45 xenografts; assay: Western blot of c-Met signaling in xenograft tumors; assay type: in vivo, Human; settings: n = 3
Description: (§1) Western blot analysis was performed using an extraction buffer as described. MKN-45, MKN-28 and U87 cells were cultured in serum-free medium overnight, then treated with the indicated dose of peptide CM 7 for 24 h at 37 °C after stimulated without or with HGF for 15 min. Next, total cell lysates were separated by 12% SDS-polyacrylamide gel (SDS-PAGE) and transferred to polyvinylidene difluoride (PVDF) membranes. The PVDF membranes were probed with following primary antibodies: anti-phospho-Met (Tyr1234/1235, (Cell Signaling Technology, Beverly, MA, USA), anti-Met (Affinity, USA), anti-phospho-AKT (Ser473, (Affinity, USA)), anti-AKT (Affinity, USA), anti-phospho-Erk1/2 (Thr202/Tyr204, (Affinity, USA)), anti-Erk1/2 (Affinity, USA), anti-E-cadherin (WanleiBio, Shengyang, China), and anti-GAPDH (Multi Sciences, Hangzhou, China). Then, horseradish-peroxidase-conjugated anti-rabbit IgG was used as a second antibody. The immunoreactive proteins were exposed using an enhanced chemiluminescence detection reagent (WanleiBio, Shengyang, China). After sacrificing the mice and isolating the tumor tissue, Western blot was performed as previously described.

MDCK cells = assay: Cell scatter assay (HGF-induced); assay type: cell-based, canine; settings: HGF 100 ng/mL, 24 h, 37 °C
Description: MDCK cells were detached from the tissue culture plate and seeded in 96-well plates at the final concentration of 1.5 × 10^3 cells/well overnight. Different concentrations of CM 7 without or with HGF (100 ng/mL) were added to the preset wells. After incubating for 24 h at 37 °C and 5% CO2, 4% paraformaldehyde was used to fix the cells, which were then stained with 0.2% crystal violet. The plates were washed with clean water. When dried, an Olympus IX53 microscope was used to capture the images.

U87 cells = assay: Cell proliferation assay, U87 (HGF-stimulated); assay type: cell-based, human; settings: CM 7, various concentrations; 20 ng/mL HGF; 4 days; serum-free medium; cell count; means of six determinations
Description: (§2) Human gastric cancer cell line MKN-45 cells were from the Chinese Academy of Medical Sciences, Beijing, China. Human gastric cancer cell line MKN-28 cells, the human glioma cell line U87 cells, and MDCK cells were obtained from the American Type Culture Collection (ATCC). The MKN-45 and MKN-28 cells were grown under a humidified atmosphere of 5% CO2 at 37 °C in RPMI 1640 medium (Biological Industries, Israel), supplemented with 10% fetal bovine serum (FBS, Biological Industries, Israel), 2 mmol/L L-glutamine (Gibco, Life Technologies, Grand Island, NY, USA), 100 U/mL penicillin, and 100 μg/mL streptomycin (Invitrogen, Carlsbad, CA, USA). MDCK and U87 cells were cultured under a humidified atmosphere of 5% CO2 at 37 °C in Dulbecco’s modified Eagle’s medium (DMEM) (Gibco, Life Technologies, Grand Island, NY, USA), supplemented with 10% FBS, 2 mmol/L L-glutamine (Gibco, Life Technologies, Grand Island, NY, USA), 100 U/mL penicillin, and 100 μg/mL streptomycin (Invitrogen, Carlsbad, CA, USA).
(§3) As described in the literature, MKN-45, MKN-28, and U87 cells were seeded into 48-well culture plates (6500 cells/well) and cultured overnight. […] After 4 days, the cells were trypsinized and counted by a cell counter. […]

MKN-45 cells [2] = assay: Cell proliferation assay, MKN-45; assay type: cell-based, Human; settings: CM 7, various concentrations; 4 days; serum-free medium; cell count; means of six determinations
Description: as §2, §3

MKN-45 cells [3] = assay: Cell cycle distribution assay; assay type: cell-based, Human; settings: 48 h; compared with the control group; n = 3
Description: According to the cell cycle detection kit (Keygen) instructions, MKN-45 cells were collected and seeded in a six-well culture plate at the concentration 2 × 10^6/mL overnight. Then, the cells were washed with PBS and treated with peptide CM 7 at the indicated concentration for 48 h. The experiment was performed in triplicate. A MACS Quant flow cytometer (Miltenyi Biotec GmbH, Bergisch Gladbach, Germany) was used to detect the cell cycle profile, and FlowJo software version 7.6 (FlowJo LLC, Ashland, USA) was used to analyze the data.

[4] = system: c-Met and its downstream signaling molecules in U87 cells; assay: Western blot of c-Met signaling, U87 (HGF-induced); assay type: cell-based, human; settings: 24 h
Description: as §1

[5] = system: c-Met and its downstream signaling molecules in MKN-28 cells; assay: Western blot of c-Met signaling, MKN-28; assay type: cell-based, Human
Description: as §1

human c-Met protein = assay: Affinity to c-Met protein (as stated in abstract and discussion); assay type: binding; settings: in words only; Kd not given
MKN-45 cells [6] = assay: Transwell invasion assay; assay type: cell-based, Human; settings: Matrigel-coated Transwell, 8 μm pores; 48 h; n = 3; dose-dependent
Description: For the invasion assay, a chamber was placed into a 24-well culture plate with 600 μL RPMI 1640 medium containing 10% FBS. MKN-45 cells were resuspended in serum-free medium and cultured on the upper compartment of the Transwell chamber (1.0 × 10^5 cells/well; pore size, 8 μm; Merck Millipore, Germany) coated with Matrigel. CM 7 and Crizotinib were added to the top side of the membrane at the indicated concentrations. After 48 h, the noninvaded cells were removed, and the invaded cells were fixed with ethanol and stained with crystal violet solution (0.1%) for 15 min at room temperature. The experiment was performed in triplicate, and images were obtained using an Olympus IX53 microscope (Olympus, Japan).

“DQIIANN [CM 7, Novel peptide DQIIANN targeting the tyrosine kinase receptor c-Met]” was tested, and the “Intratumoral expression of E-cadherin” value [1] was “significantly increased”, the “Intratumoral phosphorylation of c-Met, Akt or Erk” value [1] was “markedly inhibited” and the “Inhibition of growth of cell pseudopodia” value (MDCK cells; 1 μM) was “completely inhibited”. The “Inhibition of HGF-induced cell scattering” value (MDCK cells; dose-dependent) was “moderate regulation; also recorded: remarkably inhibit the HGF-induced cell scattering of MDCK cells in a dose-dependent manner”, the “Inhibition of cell proliferation” value (U87 cells) was “inhibit the proliferation of MKN-45 or U87 cells to a certain extent with considerable dose dependence” and the “Inhibition of cell proliferation” value (MKN-45 cells [2]) was “moderate regulation; also recorded: inhibit the proliferation of MKN-45 or U87 cells to a certain extent with considerable dose dependence”. For the same substance, the Cell cycle arrest (MKN-45 cells [3]) was “significantly arrested in the S phase”, the “Expression of E-cadherin” value [4] was “increase the expression of E-cadherin” and the “Phosphorylation of c-Met, Akt and Erk” value ([4]; HGF 15 min, dose-dependent) was “effectively inhibit”. The “Expression of E-cadherin” value [5] was “no effect”, the “Phosphorylation of c-Met, Akt and Erk” value [5] was “not MKN-28 cells; also recorded: no effect” and the “Affinity to c-Met” value (human c-Met protein) was “specific binding to c-Met with high affinity”. The “Inhibition of cell invasion” value (MKN-45 cells [6]) was “moderate regulation; also recorded: significantly inhibit cell invasion”.
